Data taken from patent US9499509B2, “Dihydrochalcone derivatives and their use as antibiotic agents” (UNIVERSITÉ DU QUÉBEC À CHICOUTIMI, priority 2012, dated 2016).
Structures can show the parent of a compound that is named as a salt. Where two headings read alike, the source gives them in different places.

Experiments:
Streptococcus agalactiae = assay: Antibiotic assay (resazurin, Example 1), Streptococcus agalactiae; assay type: cell-based; conditions: Streptococcus agalactiae
Method: (§1) Bacteria Strain. […] The MRSA were obtained as further described below.
(§2) Antibiotic agents. Cyprofloxacin and erythromycin were provided by Sigma-Aldrich. Gentamicin sulfate and vancomycin hydrochloride were provided by Calbiochem.
(§3) Five additional strains were tested: Streptococcus pneumoniae, Streptococcus agalactiae, Streptococcus pyogenes, Enterococcus faecalis and Corynebacterium jeikeium.

Enterococcus faecalis = assay: Antibiotic assay (resazurin, Example 1), Enterococcus faecalis; assay type: cell-based; conditions: Enterococcus faecalis
Method: as §1, §2, §3

Corynebacterium jeikeium = assay: Antibiotic assay (resazurin, Example 1), Corynebacterium jeikeium; assay type: cell-based; conditions: Corynebacterium jeikeium
Method: as §1, §2, §3

[1] = test system: methicillin-resistant Staphylococcus aureus (MRSA) strains; assay: Antibiotic assay (resazurin, Example 1), MRSA strains; assay type: cell-based; conditions: Staphylococcus aureus, MRSA
Source text: as §1, §2
Isolation and identification of methicillin-resistant Staphylococcus aureus (MRSA) strains. From March 2007 to March 2008, 35 screening swabs from nares (n=31), throat (n=3), Groin pus (n=1) were obtained from patients hospitalized at Chicoutimi hospital. Identification of S. aureus was performed using the Slidex Staph-Kit (bioMerieux Vitek, Inc., Hazelwood, Mo.) according to the manufacturer's instructions. Quality control was performed with MRSA strain ATCC 43300 and S. aureus strain ATCC 25923. In addition, S. aureus profile was determined with API Staph test strip with bacterial suspension of saline McFarland of 0.5 (bioMerieux, Durham, N.C.) according to the manufacturer's protocol. API Staph strips were held for 24 h before the results were read. A latex agglutination (SLIDEX) test detecting methicilin resistance in Staphylococci based on the production of low-affinity PBP2a, which is encoded by the mecA gene was performed on all strains. An antibiogram was also performed to confirm the identification of MRSA strains using disk diffusion test.
Antibiotic susceptibility testing using disk diffusion method. The antimicrobial activity of different classes of antibiotics of the potential MRSA was determined by diffusion method (Kirby-Bauer) as described by NCCLS. The antibiotics tested included: penicillin (10 units), amoxicillin/clavulanic acid (20/10 μg), ciprofloxacin (5 μg), moxifloxacin (5 μg), levofloxacin (5 μg), clindamycin (15 μg), erythromycin (15 μg), cefoxitin (30 μg), linezolid (30 μg), trimethoprim/sulfomethoxazole (1.25/23.75 μg), rifampicin (5 μg), gentamicin (10 μg) and vancomycin (30 μg). The agar medium had pH 7.2 to 7.4 before inoculing potentiel MRSA. The antibiotics were maintained at 8° C. or lower −14° C. according to manufacturer's recommendations. The pure culture was inoculated on a non-selective plate for 18-24 h. Each colony was collected with a wire loop and transfered the growth to a tube containing 4 to 5 mL of a tryptic-soy broth. The inoculum density was standarized with BaSO4 using 0.5 McFarland standard. All strains were incubated at 37° C. until it achieves or exceeds the turbidity of 0.5 McFarland standard. Inoculation of the dried surface (Muller-Hinton agar plate) by streaking the swab over the entire sterile agar surface. This procedure was repeated two more times. After 15 min, the appropriate disk were applied on the surface with a sterile forceps. The inverted plates was placed in a incubator at 37° C./air/16 to 18 h or 24 h for vancomycin. The inhibition zones were measured with a millimetric ruler. Interpretation of zone sizes by references of the manufacturer. Quality control organisms used were ATCC strains number 25923.
(§4) MRSA. Ten (10) strains of MRSA obtained as described above were tested along with an S. aureus wild type (WT) strain (ATCC25923).

Streptococcus pyogenes = assay: Antibiotic assay (resazurin, Example 1), Streptococcus pyogenes; assay type: cell-based; conditions: Streptococcus pyogenes
Method: as §1, §2, §3

Streptococcus pneumoniae = assay: Antibiotic assay (resazurin, Example 1), Streptococcus pneumoniae; assay type: cell-based; conditions: for IC50 / MIC: Streptococcus pneumoniae
Method: as §1, §2, §3

[2] = test system: S. aureus wild type strain (ATCC 25923); assay: Antibiotic assay (resazurin, Example 1), S. aureus wild type; assay type: cell-based, Staphylococcus aureus; conditions: Staphylococcus aureus
Method: as §1, §2, §4

S. epidermidis = assay: Antibiotic assay (resazurin, Example 1), S. epidermidis strains; conditions: Staphylococcus epidermidis

`CN[C@H](CC(C)C)C(=O)N[C@H]1C(=O)N[C@@H](CC(N)=O)C(=O)N[C@H]2C(=O)N[C@H]3C(=O)N[C@H](C(=O)N[C@H](C(=O)O)c4cc(O)cc(O)c4-c4cc3ccc4O)[C@H](O)c3ccc(c(Cl)c3)Oc3cc2cc(c3O[C@@H]2O[C@H](CO)[C@@H](O)[C@H](O)[C@H]2O[C@H]2C[C@](C)(N)[C@H](O)[C@H](C)O2)Oc2ccc(cc2Cl)[C@H]1O` [Vancomycin, vancomycin hydrochloride, reference compound] showed an IC50 (Streptococcus agalactiae; Strep. agalactiae 14150) of 250 ± 60 nM, an IC50 (Streptococcus agalactiae; Strep. agalactiae 14151) of 330 ± 60 nM and an IC50 (Streptococcus agalactiae; Strep. agalactiae 14153) of 240 ± 40 nM. It also gave an MIC (Streptococcus agalactiae; read-out: Minimum Inhibitory Concentration (MIC), Strep. agalactiae 14150) of 0.35 µM, an MIC (Streptococcus agalactiae; read-out: Minimum Inhibitory Concentration (MIC), Strep. agalactiae 14151) of 4.03 µM and an MIC (Streptococcus agalactiae; read-out: Minimum Inhibitory Concentration (MIC), Strep. agalactiae 14153) of 0.36 µM. It also gave an IC50 (Enterococcus faecalis; Ent. Faecalis 14078) of 700 ± 100 nM, an IC50 (Enterococcus faecalis; Ent. Faecalis 14115) greater than 10000 nM and an MIC (Enterococcus faecalis; read-out: Minimum Inhibitory Concentration (MIC), Ent. Faecalis 14078) of 5.59 µM. It also gave an MIC (Enterococcus faecalis; read-out: Minimum Inhibitory Concentration (MIC), Ent. Faecalis 14115) greater than 10 µM, an IC50 (Corynebacterium jeikeium) of 220 ± 30 nM and an MIC (Corynebacterium jeikeium; read-out: Minimum Inhibitory Concentration (MIC)) of 0.35 µM. The IC50 ([1]; MRSA1) was 80 ± 10 nM, the IC50 ([1]; MRSA2) was 80 ± 10 nM and the IC50 ([1]; MRSA3) was 64 ± 7 nM. The IC50 ([1]; MRSA4) was 69 ± 9 nM, the IC50 ([1]; MRSA5) was 62 ± 6 nM and the IC50 ([1]; MRSA6) was 80 ± 10 nM. The IC50 ([1]; MRSA7) was 80 ± 10 nM, the IC50 ([1]; MRSA8) was 80 ± 10 nM and the IC50 ([1]; MRSA9) was 80 ± 10 nM. The IC50 ([1]; MRSA10) was 59 ± 6 nM, the MIC ([1]; read-out: Minimum Inhibitory Concentration (MIC), MRSA1) was 0.12 µM and the MIC ([1]; read-out: Minimum Inhibitory Concentration (MIC), MRSA2) was 0.13 µM. It also gave an MIC ([1]; read-out: Minimum Inhibitory Concentration (MIC), MRSA3) of 0.1 µM, an MIC ([1]; read-out: Minimum Inhibitory Concentration (MIC), MRSA4) of 0.1 µM and an MIC ([1]; read-out: Minimum Inhibitory Concentration (MIC), MRSA5) of 0.09 µM. It also gave an MIC ([1]; read-out: Minimum Inhibitory Concentration (MIC), MRSA6) of 0.2 µM, an MIC ([1]; read-out: Minimum Inhibitory Concentration (MIC), MRSA7) of 0.11 µM and an MIC ([1]; read-out: Minimum Inhibitory Concentration (MIC), MRSA8) of 0.11 µM. The MIC ([1]; read-out: Minimum Inhibitory Concentration (MIC), MRSA9) was 0.11 µM, the MIC ([1]; read-out: Minimum Inhibitory Concentration (MIC), MRSA10) was 0.09 µM and the IC50 (Streptococcus pyogenes; Strep. pyogenes 14149) was 117 ± 9 nM. The IC50 (Streptococcus pyogenes; Strep. pyogenes 14152) was 80 ± 20 nM, the MIC (Streptococcus pyogenes; read-out: Minimum Inhibitory Concentration (MIC), Strep. pyogenes 14149) was 0.17 µM and the MIC (Streptococcus pyogenes; read-out: Minimum Inhibitory Concentration (MIC), Strep. pyogenes 14152) was 3.25 µM. The IC50 (Streptococcus pneumoniae; Strep. pneumoniae 14070) was 90 ± 40 nM, the IC50 (Streptococcus pneumoniae; Strep. pneumoniae 14112) was 94 ± 8 nM and the IC50 (Streptococcus pneumoniae; Strep. pneumoniae 14138) was 130 ± 80 nM. For the same compound, the IC50 (Streptococcus pneumoniae; Strep. pneumoniae 14144) was greater than 10000 nM, the IC50 (Streptococcus pneumoniae; Strep. pneumoniae 14148) was 84 ± 6 nM and the MIC (Streptococcus pneumoniae; read-out: Minimum Inhibitory Concentration (MIC), Strep. pneumoniae 14070) was 8.37 µM. For the same compound, the MIC (Streptococcus pneumoniae; read-out: Minimum Inhibitory Concentration (MIC), Strep. pneumoniae 14112) was 0.16 µM, the MIC (Streptococcus pneumoniae; read-out: Minimum Inhibitory Concentration (MIC), Strep. pneumoniae 14138) was greater than 10 µM and the MIC (Streptococcus pneumoniae; read-out: Minimum Inhibitory Concentration (MIC), Strep. pneumoniae 14144) was greater than 10 µM. The MIC (Streptococcus pneumoniae; read-out: Minimum Inhibitory Concentration (MIC), Strep. pneumoniae 14148) was 0.2 µM, the “activity against Streptococcus pneumoniae strain 14138” value (Streptococcus pneumoniae; in words) was “had an activity” and the IC50 ([2]; ATCC25923) was 400 ± 200 nM. The MIC ([2]; ATCC25923, read-out: Minimum Inhibitory Concentration (MIC)) was 1.44 µM, the IC50 (S. epidermidis; S. epidermidis 14069) was 800 ± 100 nM and the IC50 (S. epidermidis; S. epidermidis 14085) was 800 ± 100 nM. For the same compound, the IC50 (S. epidermidis; S. epidermidis 14093) was 1300 ± 200 nM, the IC50 (S. epidermidis; S. epidermidis 14134) was 1700 ± 200 nM and the IC50 (S. epidermidis; S. epidermidis 14143) was 2700 ± 100 nM. It also gave an MIC (S. epidermidis; read-out: Minimum Inhibitory Concentration (MIC), S. epidermidis 14069) of 6.58 µM, an MIC (S. epidermidis; read-out: Minimum Inhibitory Concentration (MIC), S. epidermidis 14085) of 4 µM and an MIC (S. epidermidis; read-out: Minimum Inhibitory Concentration (MIC), S. epidermidis 14093) of 8.38 µM. The MIC (S. epidermidis; read-out: Minimum Inhibitory Concentration (MIC), S. epidermidis 14134) was 11.4 µM and the MIC (S. epidermidis; read-out: Minimum Inhibitory Concentration (MIC), S. epidermidis 14143) was greater than 12.5 µM.
